The source of these data is patent US20120101110A1, “Diaza-spiro[5.5]undecanes” (priority 2010, published 2012).

In one assay the target is T1, human orexin 1 receptors (Homo sapiens, UniProt O43613).
T1 sequence (O43613 1-425): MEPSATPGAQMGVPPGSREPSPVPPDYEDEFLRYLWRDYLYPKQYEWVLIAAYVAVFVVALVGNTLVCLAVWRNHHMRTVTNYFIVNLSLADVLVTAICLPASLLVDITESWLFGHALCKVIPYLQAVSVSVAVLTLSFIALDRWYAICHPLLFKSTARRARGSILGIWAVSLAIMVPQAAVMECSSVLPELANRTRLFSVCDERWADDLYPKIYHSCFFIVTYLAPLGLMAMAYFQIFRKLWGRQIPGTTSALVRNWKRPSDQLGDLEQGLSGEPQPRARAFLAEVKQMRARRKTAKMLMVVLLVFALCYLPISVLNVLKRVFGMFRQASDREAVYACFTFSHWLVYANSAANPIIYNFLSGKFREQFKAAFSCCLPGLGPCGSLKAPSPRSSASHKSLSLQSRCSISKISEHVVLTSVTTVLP
The experiment in a line: Calcium accumulation in cells (FLIPR), hOx1R. Particulars: for inhibition at 10 µM: read-out: FLIPR hOx1R % inhibition value.

The target in the next assay is T2, human orexin 2 receptors (Homo sapiens, UniProt O43614).
T2 sequence (O43614 1-444): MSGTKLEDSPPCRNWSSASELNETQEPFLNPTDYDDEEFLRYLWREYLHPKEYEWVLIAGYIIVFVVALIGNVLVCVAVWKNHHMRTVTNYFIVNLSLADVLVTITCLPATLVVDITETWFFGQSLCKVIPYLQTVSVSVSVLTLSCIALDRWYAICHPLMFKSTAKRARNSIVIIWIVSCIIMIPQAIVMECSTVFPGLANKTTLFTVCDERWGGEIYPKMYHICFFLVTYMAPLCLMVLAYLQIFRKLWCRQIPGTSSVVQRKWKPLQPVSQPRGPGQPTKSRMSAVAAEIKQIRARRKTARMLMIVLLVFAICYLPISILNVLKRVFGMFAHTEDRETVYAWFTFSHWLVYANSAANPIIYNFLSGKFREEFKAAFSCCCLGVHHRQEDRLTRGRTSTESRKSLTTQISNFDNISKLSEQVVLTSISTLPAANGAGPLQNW
Nature of the assay: Calcium accumulation in cells (FLIPR), hOx2R. The assay is classed as cell-based. Particulars: cells expressing human orexin 2 receptor; inhibition of orexin A-induced calcium accumulation; Cheng and Prusoff correction.

Procedure for human orexin 1 receptors: (§1) Cells expressing human orexin 1 or human orexin 2 receptors, were seeded at 8,000 cells/well in 384 well black-walled clear bottom, poly-D-lysine coated plates. After 24 h, the medium was removed and cells were washed once with phosphate buffered saline and serum-deprived overnight in assay buffer (130 mM NaCl, 5.4 mM KCl, 1.8 mM CaCl2, 0.8 mM MgSO4, 0.9 mM NaH2PO4, 25 mM glucose, 20 mM HEPES, pH 7.4) containing bovine serum albumin (1% w/v).
On the day of the experiment, the cells seeded in black plates were treated with assay buffer containing the Ca^2+sensitive fluorescent dye Fluo-4-AM (2 μM), and probenecid (0.1 mM). After 1 h plates were washed twice with, and resuspended in, assay buffer containing probenecid (0.1 mM) using a multi plate washer. The plates were placed into a FLIPR II (Fluorometric Imaging Plate Reader, Molecular Devices, Sunnyvale, Calif., USA) and baseline fluorescence (fluorescence light units, FLU) was measured (5 measurements, 2 S each; laser excitation 488 nm at 0.6-1 W, CCD camera exposure 0.4 s) before addition of buffer alone (basal) or containing test compounds (either compound of formula I alone, agonist alone or agonist in the presence of various concentrations of compounds of formula I). Fluorescence measurements were then continued every 1 S for 120 S followed by every 4 S for 240 S.
(§2) Compounds of formula I were tested usually in a concentration range from 10^−9 M to 10^−5 M. In the second round, performed one hour later (to allow for equilibration), Orexin A was tested either in the absence (calibration curves, Orexin A agonist controls) or in the presence of compounds of formula I to determine antagonism.
Inhibition data is expressed in Table 2 as Ki [μM], converted by the Cheng and Prusoff correction (Ki=IC50/1+(L/EC50)), where IC50 is the 50% inhibition value determined in concentration response inhibition curves, EC50 is the half maximal activation concentration determined for orexin A in concentration response curves and L is the concentration of orexin A used in inhibition experiments performed in with a submaximal concentration of orexin A in the presence of up to 8 increasing concentrations of compound of formula I. Inhibition data is also expressed in Table 2 as % inhibition value measured at a concentration of 10 μM of selected compounds of formula I.
Procedure for human orexin 2 receptors: as §1
On the day of the experiment, the cells seeded in black plates were treated with assay buffer containing the Ca^2+sensitive fluorescent dye Fluo-4-AM (2 μM), and probenecid (0.1 mM). After 1 h plates were washed twice with, and resuspended in, assay buffer containing probenecid (0.1 mM) using a multi plate washer. […] Fluorescence measurements were then continued every 1 S for 120 S followed by every 4 S for 240 S.
The measurements were typically made in two sequences:
as §2

`COc1cncc(N2CCC3(CCCC(=O)N3Cc3c[nH]c4ccccc34)CC2)n1` [Example 55, 1-((1H-indol-3-yl)methyl)-9-(6-methoxypyrazin-2-yl)-1,9-diazaspiro[5.5]undecan-2-one]: the inhibition at 10 µM on human orexin 1 receptors turned out to be 40%. On human orexin 2 receptors, the Ki was 727 nM.
For `COc1cncc(N2CCC3(CCCN(Cc4cccc5c4OCCO5)C3=O)CC2)n1` [Example 56, 2-((2,3-dihydrobenzo[b][1,4]dioxin-5-yl)methyl)-9-(6-methoxypyrazin-2-yl)-2,9-diazaspiro[5.5]undecan-1-one], the inhibition at 10 µM on human orexin 1 receptors turned out to be 35%. Moreover, the inhibitory constant (Ki) on human orexin 2 receptors is 718 nM.
Regarding `Cc1cccc(N2CCC3(CCCN(Cc4c[nH]c5ccccc45)C3=O)CC2)c1` [Example 57, 2-((1H-indol-3-yl)methyl)-9-m-tolyl-2,9-diazaspiro[5.5]undecan-1-one], the inhibitory constant (Ki) on human orexin 1 receptors turned out to be 3750 nM; at human orexin 2 receptors it was 171 nM.
For the molecule `Cc1cncc(N2CCC3(CCCN(Cc4c[nH]c5ccccc45)C3=O)CC2)c1` [Example 58, 2-((1H-indol-3-yl)methyl)-9-(5-methylpyridin-3-yl)-2,9-diazaspiro[5.5]undecan-1-one], on human orexin 1 receptors, the inhibition at 10 µM turned out to be 31%. On human orexin 2 receptors, the Ki worked out at 156 nM.
For `COc1ccc(N2CCC3(CCCN(Cc4c[nH]c5ccccc45)C3=O)CC2)cc1OC` [Example 59, 2-((1H-indol-3-yl)methyl)-9-(3,4-dimethoxyphenyl)-2,9-diazaspiro[5.5]undecan-1-one] the same measures were 15% and 1380 nM.
Turning to `COc1cccc(N2CCC3(CCCN(Cc4c[nH]c5ccccc45)C3=O)CC2)c1` [Example 60, 2-((1H-indol-3-yl)methyl)-9-(3-methoxyphenyl)-2,9-diazaspiro[5.5]undecan-1-one], the figures for the Ki at human orexin 1 receptors and on human orexin 2 receptors were 3110 nM and 228 nM, respectively.
`COc1cncc(N2CCC3(CCCN(Cc4c[nH]c5ccccc45)C3=O)CC2)c1` [Example 62, 2-((1H-indol-3-yl)methyl)-9-(5-methoxypyridin-3-yl)-2,9-diazaspiro[5.5]undecan-1-one]: the inhibition at 10 µM on human orexin 1 receptors came to 31%. Moreover, the inhibition constant Ki on human orexin 2 receptors worked out at 117 nM.
For `Cc1cc(N2CCC3(CCCN(Cc4c[nH]c5ccccc45)C3=O)CC2)cc(C)n1` [Example 63, 2-((1H-indol-3-yl)methyl)-9-(2,6-dimethylpyridin-4-yl)-2,9-diazaspiro[5.5]undecan-1-one] the same measures were 16% and 1280 nM.
`Cc1ccc(N2CCC3(CCCN(Cc4c[nH]c5ccccc45)C3=O)CC2)nc1C` [Example 64, 2-((1H-indol-3-yl)methyl)-9-(5,6-dimethylpyridin-2-yl)-2,9-diazaspiro[5.5]undecan-1-one]: the inhibitory constant (Ki) came out at 3370 nM on human orexin 1 receptors and 150 nM at human orexin 2 receptors.
Regarding `Cc1cccnc1N1CCC2(CCCN(Cc3c[nH]c4ccccc34)C2=O)CC1` [Example 66, 2-((1H-indol-3-yl)methyl)-9-(3-methylpyridin-2-yl)-2,9-diazaspiro[5.5]undecan-1-one], the inhibition at 10 µM on human orexin 1 receptors was determined as 36%. Also, the Ki at human orexin 2 receptors turned out to be 991 nM.
For `Cc1ccc(N2CCC3(CCCN(Cc4c[nH]c5ccccc45)C3=O)CC2)nc1` [Example 68, 2-((1H-indol-3-yl)methyl)-9-(5-methylpyridin-2-yl)-2,9-diazaspiro[5.5]undecan-1-one] the same measures were 14% and 798 nM.
As for `N#Cc1ccc(N2CCC3(CCCN(Cc4c[nH]c5ccccc45)C3=O)CC2)nc1` [Example 69, 6-(2-((1H-indol-3-yl)methyl)-1-oxo-2,9-diazaspiro[5.5]undecan-9-yl)nicotinonitrile], the inhibition at 10 µM at human orexin 1 receptors is 31%. The Ki at human orexin 2 receptors worked out at 320 nM.
For the molecule `Cc1nccc(N2CCC3(CCCN(Cc4c[nH]c5ccccc45)C3=O)CC2)n1` [Example 70, 2-((1H-indol-3-yl)methyl)-9-(2-methylpyrimidin-4-yl)-2,9-diazaspiro[5.5]undecan-1-one], the Ki at human orexin 1 receptors was 1810 nM; on human orexin 2 receptors, 240 nM.
As to `Cc1cc(N2CCC3(CCCN(Cc4c[nH]c5ccccc45)C3=O)CC2)nc(C)n1` [Example 71, 2-((1H-indol-3-yl)methyl)-9-(2,6-dimethylpyrimidin-4-yl)-2,9-diazaspiro[5.5]undecan-1-one], the inhibition at 10 µM on human orexin 1 receptors was determined as 31%. For the same molecule, at human orexin 2 receptors, the Ki turned out to be 166 nM.
As for `Cc1cnc(N2CCC3(CCCN(Cc4c[nH]c5ccccc45)C3=O)CC2)cn1` [Example 72, 2-((1H-indol-3-yl)methyl)-9-(5-methylpyrazin-2-yl)-2,9 diazaspiro[5.5]undecan-1-one], the inhibition at 10 µM on human orexin 1 receptors came out at 16%. Moreover, on human orexin 2 receptors, the Ki came to 280 nM.
For `COCc1cccc(N2CCC3(CCCN(Cc4c[nH]c5ccccc45)C3=O)CC2)n1` [Example 73, 2-((1H-indol-3-yl)methyl)-9-(6-(methoxymethyl)pyridin-2-yl)-2,9-diazaspiro[5.5]undecan-1-one] the same measures were 30% and 639 nM.
`N#Cc1cc(C#N)nc(N2CCC3(CCCN(Cc4c[nH]c5ccccc45)C3=O)CC2)n1` [Example 76, 2-(2-((1H-indol-3-yl)methyl)-1-oxo-2,9-diazaspiro[5.5]undecan-9-yl)pyrimidine-4,6-dicarbonitrile]: at human orexin 1 receptors, the inhibition at 10 µM was under 10%. The Ki on human orexin 2 receptors came out at 1130 nM.
In the case of `N#Cc1cncc(N2CCC3(CCCN(Cc4c[nH]c5ccccc45)C3=O)CC2)n1` [Example 77, 6-(2-((1H-indol-3-yl)methyl)-1-oxo-2,9-diazaspiro[5.5]undecan-9-yl)pyrazine-2-carbonitrile], the Ki was 3630 nM at human orexin 1 receptors and 173 nM at human orexin 2 receptors.
For the molecule `CCc1ccnc(N2CCC3(CCCN(Cc4c[nH]c5ccccc45)C3=O)CC2)n1` [Example 79, 2-((1H-indol-3-yl)methyl)-9-(4-ethylpyrimidin-2-yl)-2,9-diazaspiro[5.5]undecan-1-one], the inhibition constant Ki turned out to be 708 nM at human orexin 1 receptors and 126 nM at human orexin 2 receptors.
In the case of `Cc1nnc(N2CCC3(CCCN(Cc4c[nH]c5ccccc45)C3=O)CC2)s1` [Example 85, 2-((1H-indol-3-yl)methyl)-9-(5-methyl-1,3,4-thiadiazol-2-yl)-2,9-diazaspiro[5.5]undecan-1-one], the inhibition at 10 µM at human orexin 1 receptors amounted to 42%. The Ki at human orexin 2 receptors stood at 664 nM.
`Cc1cnc(C)c(N2CCC3(CCCN(Cc4c[nH]c5ccccc45)C3=O)CC2)n1` [Example 86, 2-((1H-indol-3-yl)methyl)-9-(3,6-dimethylpyrazin-2-yl)-2,9-diazaspiro[5.5]undecan-1-one]: the inhibition at 10 µM on human orexin 1 receptors turned out to be 22%. The Ki at human orexin 2 receptors was found to be 545 nM.
For `COc1cc(N2CCC3(CCCN(Cc4c[nH]c5ccccc45)C3=O)CC2)ncn1` [Example 87, 2-((1H-indol-3-yl)methyl)-9-(6-methoxypyrimidin-4-yl)-2,9-diazaspiro[5.5]undecan-1-one] the same measures were 20% and 351 nM.
For `O=C1N(Cc2c[nH]c3ccccc23)CCCC12CCN(c1ccc(C(F)(F)F)cn1)CC2` [Example 89, 2-((1H-indol-3-yl)methyl)-9-(5-(trifluoromethyl)pyridin-2-yl)-2,9-diazaspiro[5.5]undecan-1-one] the same measures were 18% and 426 nM.
Regarding `Cc1ccnc(N2CCC3(CCCC(=O)N3Cc3ccccc3-c3nc(C)no3)CC2)n1` [Example 99, 1-(2-(3-methyl-1,2,4-oxadiazol-5-yl)benzyl)-9-(4-methylpyrimidin-2-yl)-1,9-diazaspiro[5.5]undecan-2-one], the inhibition at 10 µM on human orexin 1 receptors is 12%. For the same molecule, the Ki on human orexin 2 receptors turned out to be 614 nM.

As usually defined, the inhibition is the share of the control response that was lost under treatment. The term Ki denotes the equilibrium dissociation constant of an inhibitor or competing ligand from its target.
